Measured values published in US7915292B2, “Antibacterial quinoline derivatives” (Janssen Pharmaceutica NV, priority 2005, dated 2011).
Values after ≈ are worked out from the molar mass of the structure shown.

How the values were obtained:
STA 25923 = assay: Microtitre plate assay, IC90 determination, STA 25923; assay type: cell-based, S. aureus; details: Staphylococcus aureus; 90% inhibitory concentration for bacterial growth; strain STA 25923; 24 hours at 37° C.; read-out: IC90 (μg/ml) STA 25923
Experimental: (§1) Stocks (0.5 ml/tube) were stored at -70° C. until use. Bacteria titrations were performed in microtiter plates to detect the TCID50, in which the TCID50 represents the dilution that gives rise to bacterial growth in 50% of inoculated cultures. In general, an inoculum level of approximately 100 TCID50 was used for susceptibility testing. […] Serial five-fold dilutions (45 μl in 180 μl) were made directly in the microtiter plates from column 2 to reach column 11. Untreated control samples with (column 1) and without (column 12) inoculum were included in each microtiter plate. Depending on the bacteria type, approximately 10 to 60 CFU per well of bacteria inoculum (100 TCID50), in a volume of 100 μl in 2.8× Mueller-Hinton broth medium, was added to the rows […]. The same volume of broth medium without inoculum was added to column 12 in row A to H. The cultures were incubated at 37° C. for 24 hours under a normal atmosphere (incubator with open air valve and continuous ventilation). At the end of incubation, one day after inoculation, the bacterial growth was quantitated fluorometrically. Therefore resazurin (0.6 mg/ml) was added in a volume of 20 μl to all wells 3 hours after inoculation, and the plates were re-incubated overnight. A change in colour from blue to pink indicated the growth of bacteria. The fluorescence was read in a computer-controlled fluorometer (Cytofluor Biosearch) at an excitation wavelength of 530 nm and an emission wavelength of 590 nm. The % growth inhibition achieved by the compounds was calculated according to standard methods. The IC90 (expressed in μg/ml) was defined as the 90% inhibitory concentration for bacterial growth.

M. Smegmatis ATCC607 = assay: In-vitro anti-bacterial activity against strain M. smegmatis ATCC607 (Alamar Blue growth inhibition); assay type: cell-based; details: Mycolicibacterium smegmatis, 48 hours incubation, read-out: M. smegmatis pIC50 (converted)
Summary of the method: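 Five-fold serial compound dilutions were inoculated with about 250 CFU/well in Mueller-Hinton broth and incubated 48 h at 37° C under 5% CO2. Growth was read by Alamar Blue fluorescence (ex 530/em 590 nm) after a further 2 h. Percent growth inhibition was expressed as pIC50.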

ECO 25922 = assay: Microtitre plate assay, IC90 determination, ECO 25922; assay type: cell-based, E. coli; details: Escherichia coli; 90% inhibitory concentration for bacterial growth; strain ECO 25922; 24 hours at 37° C.; read-out: IC90 (μg/ml) ECO 25922
Experimental: as §1

STA 43300 = assay: Microtitre plate assay, IC90 determination, STA 43300; assay type: cell-based, S. aureus; details: Staphylococcus aureus; 90% inhibitory concentration for bacterial growth; strain STA 43300; 24 hours at 37° C.; read-out: IC90 (μg/ml) STA 43300
Experimental: as §1, with “Therefore resazurin (0.6 mg/ml) was added in a volume of 20 μl to all wells 3 hours after inoculation, and the plates were re-incubated overnight. A change in colour from blue to pink indicated the growth of bacteria.” left out, “The IC90 (expressed in μg/ml) was defined as the 90% inhibitory concentration for bacterial growth.” left out

SMU 33402 = assay: Microtitre plate assay, IC90 determination, SMU 33402; assay type: cell-based, S. mutans; details: Streptococcus mutans; 90% inhibitory concentration for bacterial growth; strain SMU 33402; 24 hours at 37° C.; read-out: IC90 (μg/ml) SMU 33402
Experimental: as §1

STA 29213 = assay: Microtitre plate assay, IC90 determination, STA 29213; assay type: cell-based, S. aureus; details: Staphylococcus aureus; 90% inhibitory concentration for bacterial growth; strain STA 29213; 24 hours at 37° C.; read-out: IC90 (μg/ml) STA 29213
Experimental: as §1

LMO 49594 = assay: Microtitre plate assay, IC90 determination, LMO 49594; assay type: cell-based, Listeria monocytogenes; details: Listeria monocytogenes; 90% inhibitory concentration for bacterial growth; strain LMO 49594; 24 hours at 37° C.; read-out: IC90 (μg/ml) LMO 49594
Experimental: as §1

BSU 43639 = assay: Microtitre plate assay, IC90 determination, BSU 43639; assay type: cell-based, Bacillus subtilis; details: Bacillus subtilis; 90% inhibitory concentration for bacterial growth; strain BSU 43639; 24 hours at 37° C.; read-out: IC90 (μg/ml) BSU 43639
Experimental: as §1

EFA 29212 = assay: Microtitre plate assay, IC90 determination, EFA 29212; assay type: cell-based, E. faecalis; details: Enterococcus faecalis; 90% inhibitory concentration for bacterial growth; strain EFA 29212; 24 hours at 37° C.; read-out: IC90 (μg/ml) EFA 29212
Experimental: as §1

SMILES: Cc1ccc2nc(-c3ccccc3)c(C(c3ccccc3)N(CC(=O)N3CCN(C)CC3)Cc3ccccc3)cc2c1 (stereo not drawn) [Compound 72]
- IC90 (STA 25923): 11.1 µg/mL (≈ 20 µM)
- IC50 (M. Smegmatis ATCC607): 1.58 µM
- IC90 (ECO 25922): 55.5 µg/mL (≈ 100 µM)
- IC90 (STA 43300): 11.1 µg/mL (≈ 20 µM)
- IC90 (SMU 33402): 13.9 µg/mL (≈ 25.1 µM)
- IC90 (STA 29213): 11.1 µg/mL (≈ 20 µM)
- IC90 (LMO 49594): 11.1 µg/mL (≈ 20 µM)
- IC90 (BSU 43639): 8.8 µg/mL (≈ 15.9 µM)

SMILES: COc1nc2ccc(Br)cc2cc1C(c1ccccc1)N(CC(=O)N1CCN(C)CC1)Cc1cccc2ncccc12 (stereo not drawn) [Compound 114]
- IC90 (EFA 29212): 12.5 µg/mL (≈ 20 µM)
- IC50 (M. Smegmatis ATCC607): 20 µM
- IC90 (ECO 25922): 62.5 µg/mL (≈ 100 µM)
- IC90 (STA 43300): 12.5 µg/mL (≈ 20 µM)
- IC90 (SMU 33402): 15.7 µg/mL (≈ 25.1 µM)
- IC90 (STA 29213): 12.5 µg/mL (≈ 20 µM)
- IC90 (LMO 49594): 49.6 µg/mL (≈ 79.4 µM)
